Data published in patent publication US10195248B2, “Use of haptoglobin subunit for promoting wound healing” (Taipei Medical University, priority 2016, dated 2019).

System: low-density lipoproteins (LDL)
Test: Anti-oxidant test (TBARS production, Cu-induced LDL oxidation)
Format: biochemical
Details: 5 μM CuSO4, 20 μg LDL, 37° C., 2 hours; TBARS absorbance 540 nm; FIG. 1
Method: In this experiment, production level of thiobarbituric acid-reactive substances (TBARS) was measured to determine oxidization level of low-density lipoproteins (LDL). Specifically, […], of each test article was mixed with 5 μM copper (II) sulfate (CuSO4) and 20 μg of LDL, and then incubated at 37° C. for 2 hours. 250 μL of 20% tricholoroacetic acid was added to the precipitated protein. After that, 250 μL of 0.67% 2-thiobarbituric acid was added to the obtained mixture and incubated at 80° C. for 30 minutes. The final resultant was separated to give a supernatant by centrifugation at 3,000 g for 5 minutes. 300 μL of the supernatant was taken to a 96-well plate to measure its absorbance under 540 nm.

inhibitory concentration (IC50) for anti-oxidant activity (rank order) | Molecule
follow it sequentially | CC(C)(Sc1cc(C(C)(C)C)c(O)c(C(C)(C)C)c1)Sc1cc(C(C)(C)C)c(O)c(C(C)(C)C)c1 [probucol, Probucol]
follow it sequentially | Hp β subunit: haptoglobin β subunit
